Results reported in US20060069132A1, “Azolecarboxamide herbicides” (priority 2004, published 2006).

Key:
ducksalad [1] = assay: Test C flooded paddy test; assay type: in vivo, Heteranthera limosa
velvetleaf = assay: Test B pre-/postemergence herbicide test; assay type: in vivo, Abutilon theophrasti; settings: for Plant response rating, Velvetleaf: preemergence; for Velvetleaf plant response rating: postemergence, visual rating, scale 0 (no effect) to 100 (complete control)
In short: (§1)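 Evaluation is visual, comparing treated with control plants on a scale where 0 means no effect and 100 means full control. Treatments were preemergence, or postemergence on seedlings 2–18 cm tall, and held 13–15 days in the greenhouse.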

morningglory = assay: Test B pre-/postemergence herbicide test; assay type: in vivo, Ipomoea coccinea; settings: for Plant response rating, Morningglory: preemergence; for Morningglory plant response rating: postemergence, visual rating, scale 0 (no effect) to 100 (complete control)
In short: (§2)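 Flooded paddy rice and barnyardgrass were treated at the 2-leaf stage; upland plantings received compound either on sown seed or on 1- to 4-leaf seedlings. All were kept 13–15 days in a greenhouse and scored visually, 0–100, relative to untreated plants.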

wild oat = assay: Test B postemergence herbicide test; assay type: in vivo, Avena fatua; settings: postemergence, visual rating, scale 0 (no effect) to 100 (complete control)
In short: (§3)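 After treating 2-leaf paddy plants or 2–18 cm postemergence plants (1 to 4 leaves) with formulated chemical, researchers kept them in a greenhouse for 13–15 days. Effects were judged visually versus controls: 0 indicates none, 100 total control.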

Surinam grass = assay: Test B pre-/postemergence herbicide test; assay type: in vivo, Urochloa decumbens; settings: for Plant response rating, Surinam Grass: preemergence; for Surinam Grass plant response rating: postemergence, visual rating, scale 0 (no effect) to 100 (complete control)
In short: as §1

corn = assay: Test B pre-/postemergence herbicide test; assay type: in vivo, Zea mays; settings: for Plant response rating, Corn: preemergence; for Corn plant response rating: postemergence, visual rating, scale 0 (no effect) to 100 (complete control)
In short: as §1

[2] = test system: small flower umbrella sedge; assay: Test B flooded paddy test; assay type: in vivo, Cyperus difformis; settings: 1000 g ai/ha, visual rating, scale 0 to 100 (0 no effect, 100 complete control), 13 to 15 days
In short: as §3

rice [3] = assay: Test B pre-/postemergence herbicide test; assay type: in vivo, Oryza sativa; settings: preemergence
In short: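 Plants compared with untreated controls 13–15 days post-treatment and given a visual 0–100 injury score. Applications: preemergence to seeds; postemergence at 1- to 4-leaf (2–18 cm); paddy species flooded, 2-leaf stage. Vehicle non-phytotoxic, surfactant included.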

rice [4] = assay: Test B flooded paddy test; assay type: in vivo, Oryza sativa; settings: 1000 g ai/ha, visual rating, scale 0 to 100 (0 no effect, 100 complete control), 13 to 15 days
In short: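 Each value is a visual 0–100 response rating taken against controls 13 to 15 days after treatment in the greenhouse. Plants received formulated chemical postemergence at the 1- to 4-leaf stage or, in flooded paddy, at the 2-leaf stage.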

large crabgrass = assay: Test B pre-/postemergence herbicide test; assay type: in vivo, Digitaria sanguinalis; settings: for Plant response rating, Crabgrass, Large: preemergence; for Crabgrass, Large plant response rating: postemergence, visual rating, scale 0 (no effect) to 100 (complete control)
In short: as §1

blackgrass = assay: Test B postemergence herbicide test; assay type: in vivo, Alopecurus myosuroides; settings: postemergence, visual rating, scale 0 (no effect) to 100 (complete control)
In short: as §3

rice [5] = assay: Test C flooded paddy test; assay type: in vivo, Oryza sativa
In short: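 Postemergence sprays applied to plants 2 to 18 cm tall (1- to 4-leaf stage); paddy species grown to 2-leaf stage under flooding. After 12 to 14 days in greenhouse, visual rating versus untreated controls on 0–100 scale (0 no effect, 100 complete control).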

cocklebur = assay: Test B pre-/postemergence herbicide test; assay type: in vivo, Xanthium strumarium; settings: for Plant response rating, Cocklebur: preemergence; for Cocklebur plant response rating: postemergence, visual rating, scale 0 (no effect) to 100 (complete control)
In short: as §2

barnyardgrass [6] = assay: Test B flooded paddy test; assay type: in vivo, Echinochloa crus-galli; settings: 1000 g ai/ha, visual rating, scale 0 to 100 (0 no effect, 100 complete control), 13 to 15 days
In short: as §3

barnyardgrass [7] = assay: Test B pre-/postemergence herbicide test; assay type: in vivo, Echinochloa crus-galli; settings: for Plant response rating, Barnyardgrass: preemergence; for Barnyardgrass plant response rating: postemergence, visual rating, scale 0 (no effect) to 100 (complete control)
In short: as §2

ducksalad [8] = assay: Test B flooded paddy test; assay type: in vivo, Heteranthera limosa; settings: 1000 g ai/ha, visual rating, scale 0 to 100 (0 no effect, 100 complete control), 13 to 15 days
In short: as §3

giant foxtail = assay: Test B pre-/postemergence herbicide test; assay type: in vivo, Setaria faberi; settings: for Plant response rating, Foxtail, Giant: preemergence; for Foxtail, Giant plant response rating: postemergence, visual rating, scale 0 (no effect) to 100 (complete control)
In short: as §1

barnyardgrass [9] = assay: Test C flooded paddy test; assay type: in vivo, Echinochloa crus-galli
In short: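 Weeds and wheat were sprayed after emergence, at a height of 2 to 18 cm (1–4 leaves), and paddy barnyardgrass was flooded and treated at two leaves. Assessment took place 12–14 days later in the greenhouse on a 0-to-100 visual control scale. A dash means no result was obtained.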

pigweed = assay: Test B pre-/postemergence herbicide test; assay type: in vivo, Amaranthus retroflexus; settings: for Plant response rating, Pigweed: preemergence; for Pigweed plant response rating: postemergence, visual rating, scale 0 (no effect) to 100 (complete control)
In short: as §1

wheat = assay: Test B postemergence herbicide test; assay type: in vivo, Triticum aestivum; parameters: key to Wheat plant response rating: 0 = no effect, 100 = complete control; settings: postemergence, 500 g ai/ha; visual rating, scale 0 (no effect) to 100 (complete control)
In short: as §3

lambsquarters = assay: Test B pre-/postemergence herbicide test; assay type: in vivo, Chenopodium album; settings: for Plant response rating, Lambsquarters: preemergence; for Lambsquarters plant response rating: postemergence, visual rating, scale 0 (no effect) to 100 (complete control)
In short: as §1

[10] = test system: smallflower umbrella sedge; assay: Test C flooded paddy test; assay type: in vivo, Cyperus difformis
[11] = 62 g ai/ha, scale 0 to 100 (0 no effect, 100 complete control)
[12] = 125 g ai/ha, scale 0 to 100 (0 no effect, 100 complete control)
[13] = 250 g ai/ha, scale of 0 to 100, 0 is no effect, 100 is complete control
[14] = 500 g ai/ha, visual rating after 12 to 14 days, scale 0 to 100 (0 no effect, 100 complete control)
[15] = 500 g ai/ha, visual rating 0-100, 0 no effect, 100 complete control
[16] = 125 g ai/ha, 0 to 100 scale, 0 is no effect, 100 is complete control

## CCn1nc(C(C)(C)C)cc1C(=O)Nc1cccc(C(=O)N(C)CC#N)n1 [Compound 158]
Ducksalad [1]; [11]
  Ducksalad plant response rating: 0
Ducksalad [1]; [12]
  Ducksalad plant response rating: 0
Ducksalad [1]; [13]
  Ducksalad plant response rating: 20
Ducksalad [1]; [14]
  Plant response rating, Ducksalad: 50
velvetleaf; [15]
  Plant response rating, Velvetleaf: 80
velvetleaf; 125 g ai/ha
  Velvetleaf plant response rating: 50
velvetleaf; 500 g ai/ha
  Velvetleaf plant response rating: 50
velvetleaf; [16]
  Plant response rating, Velvetleaf: 50
morningglory; [15]
  Plant response rating, Morningglory: 50
morningglory; 125 g ai/ha
  Morningglory plant response rating: 0
morningglory; 500 g ai/ha
  Morningglory plant response rating: 50
morningglory; [16]
  Plant response rating, Morningglory: 50
Wild oat; 125 g ai/ha
  Oat, Wild plant response rating: 30
Wild oat; 500 g ai/ha
  Oat, Wild plant response rating: 40
Surinam grass; [15]
  Plant response rating, Surinam Grass: 90
Surinam grass; 125 g ai/ha
  Surinam Grass plant response rating: 0
Surinam grass; 500 g ai/ha
  Surinam Grass plant response rating: 0
Surinam grass; [16]
  Plant response rating, Surinam Grass: 30
corn; [15]
  Plant response rating, Corn: 60
corn; 125 g ai/ha
  Corn plant response rating: 0
corn; 500 g ai/ha
  Corn plant response rating: 10
corn; [16]
  Plant response rating, Corn: 0
[2]
  Sedge, Umbrella plant response rating: 80
Rice [3]; [15]
  Plant response rating, Rice: 90
Rice [3]; [16]
  Plant response rating, Rice: 80
Rice [4]
  Rice plant response rating: 60
Large crabgrass; [15]
  Plant response rating, Crabgrass, Large: 100
Large crabgrass; 125 g ai/ha
  Crabgrass, Large plant response rating: 30
Large crabgrass; 500 g ai/ha
  Crabgrass, Large plant response rating: 30
Large crabgrass; [16]
  Plant response rating, Crabgrass, Large: 80
blackgrass; 125 g ai/ha
  Blackgrass plant response rating: 20
blackgrass; 500 g ai/ha
  Blackgrass plant response rating: 30
Rice [5]; [11]
  Rice plant response rating: 0
Rice [5]; [12]
  Rice plant response rating: 0
Rice [5]; [13]
  Rice plant response rating: 35
Rice [5]; [14]
  Plant response rating, Rice: 60
cocklebur; [15]
  Plant response rating, Cocklebur: 40
cocklebur; 125 g ai/ha
  Cocklebur plant response rating: 20
cocklebur; 500 g ai/ha
  Cocklebur plant response rating: 70
cocklebur; [16]
  Plant response rating, Cocklebur: 40
Barnyardgrass [6]
  Barnyardgrass plant response rating: 70
Barnyardgrass [7]; [15]
  Plant response rating, Barnyardgrass: 100
Barnyardgrass [7]; 125 g ai/ha
  Barnyardgrass plant response rating: 0
Barnyardgrass [7]; 500 g ai/ha
  Barnyardgrass plant response rating: 0
Barnyardgrass [7]; [16]
  Plant response rating, Barnyardgrass: 70
Ducksalad [8]
  Ducksalad plant response rating: 90
Giant foxtail; [15]
  Plant response rating, Foxtail, Giant: 100
Giant foxtail; 125 g ai/ha
  Foxtail, Giant plant response rating: 0
Giant foxtail; 500 g ai/ha
  Foxtail, Giant plant response rating: 30
Giant foxtail; [16]
  Plant response rating, Foxtail, Giant: 50
Barnyardgrass [9]; [11]
  Barnyardgrass plant response rating: 0
Barnyardgrass [9]; 125 g ai/ha, scale of 0 to 100, 0 is no effect, 100 is complete control
  Barnyardgrass plant response rating: 0
Barnyardgrass [9]; [13]
  Barnyardgrass plant response rating: 15
Barnyardgrass [9]; [14]
  Plant response rating, Barnyardgrass: 35
pigweed; [15]
  Plant response rating, Pigweed: 100
pigweed; 125 g ai/ha
  Pigweed plant response rating: 50
pigweed; 500 g ai/ha
  Pigweed plant response rating: 70
pigweed; [16]
  Plant response rating, Pigweed: 100
wheat
  Wheat plant response rating: 10
lambsquarters; [15]
  Plant response rating, Lambsquarters: 100
lambsquarters; 125 g ai/ha
  Lambsquarters plant response rating: 80
lambsquarters; 500 g ai/ha
  Lambsquarters plant response rating: 80
lambsquarters; [16]
  Plant response rating, Lambsquarters: 70
[10]; [11]
  Sedge, Umbrella plant response rating: 15
[10]; [12]
  Sedge, Umbrella plant response rating: 45
[10]; [13]
  Sedge, Umbrella plant response rating: 70
[10]; [14]
  Plant response rating, Sedge, Umbrella: 80
